From article PMC5552854, “ER/K linked GPCR-G protein fusions systematically modulate second messenger response in cells” (Scientific Reports, 2017) come the findings set out here.

The target in one test is β2-AR control (–) sensor. Put plainly: [3H]-DHA saturation binding (KD). Further details: species or system human. To be noted: control sensor membranes. As for the experimental part:
(§1) Radio-ligand assays followed the previously published protocol. […]; PerkinElmer) for 90 min at room temperature in Tris-Buffered-Saline (TBS) pH 7.4. Samples were transferred to GF/C membranes pre-treated with 0.3% PEI solution in TBS, washed extensively with cold TBS, and dried over night at room temperature. […] Each experiment was done at least twice with different membrane preparations, with three separate samples prepared per condition, per experiment.

The target of the next test is β2-AR-Gs sensor. Put plainly: [3H]-DHA saturation binding (KD). Set-up: species or system human. To be noted: β2-AR-Gs sensor membranes. The method, then:
as §1

Test [1] relates to α2-AR-Gi fusion. The following applies: 100 μM / 1 mM (Fig. 3 legend), live cells.
Method: Change in FRET (ΔFRET) was calculated as FRETligand – FRETbuffer.
The test system of test [2] is α2-AR-Gi fusion. To be noted: 100 μM, 1 μM forskolin; α2-AR-Gi compared to α2-AR alone (–).

As to `CCCc1ccccc1OCC(O)CNC(C)C` (stereo not shown) [[^3H]-DHA, [^3H]-dihydroalprenolol], the Kd at β2-AR control (–) sensor and on β2-AR-Gs sensor was around 200 pM each time.

Take `CNC[C@H](O)c1ccc(O)c(O)c1` [epinephrine]: in the test on α2-AR-Gi fusion [1], the ΔFRET stood at 0.01 ± 0.002. Further, the “loss in cAMP signaling (inhibition of forskolin induced cAMP)” value in the test on α2-AR-Gi fusion [2] is listed as “greater loss in cAMP signaling”.

Usually Kd stands for the free concentration of one partner at which half of the binding sites on the other are occupied at equilibrium, for simple one-to-one binding. A low value points to higher affinity.
